Assay results taken from patent publication US9345739B2, “Methods and compositions for the treatment of proteinuric diseases” (The General Hospital Corporation, priority 2007, dated 2016).
Entries after “also recorded” stand apart in the source; their conditions may differ.

Legend:
cdc42 = assay: GTPase activity assay in isolated glomeruli (cdc42); format: in vivo, mouse; settings: wild type mice co-injected with LPS and RGDfV (every 8 hours for 24 hours)
Method: (§1) Rho family small GTPase activity in glomerular lysates was measured by Rho/Rac/Cdc42 activation assay kit (Cell Biolabs, INC.) following the manufacturer's protocol. Isolated glomeruli from wild type and uPAR^−/− mice, some of them treated with LPS (t=0) and with RGDfV (SEQ ID NO: 1) every 8 hours for 24 hours were obtained by standard sieve technique^25. 2 mg of glomerular lysate were used to prepare for positive or negative control by incubating with 10 μl of GTPγS or GDP respectively. For small GTPase pull-down assay, the same amount (2 mg) of glomerulus lysates from different treatments were incubated with 40 μl of Rhotekin RBD or PAK PBD agarose bead slurry for 1 h at 4° C. After washing 3 times with 1× assay buffer, beads were harvested and resuspended in LDS sample buffer. Samples were heated for 10 min at 70° C. before SDS-PAGE. After electrophoresis and protein transfer, the membranes were blocked with 5% milk, and incubated with anti-Rho, anti-Rac, and anti-Cdc42 antibodies for 1 h, followed by second antibody incubation and detection with ECL (Pierce). For loading control, 100 μg of glomerular lysates from different treatments were applied and immunoblotted with the same anti-Rho, anti-Cdc42 and anti-Rac antibodies as used above.

Rac1 = assay: GTPase activity assay in isolated glomeruli (Rac1); format: in vivo, mouse; settings: wild type mice co-injected with LPS and RGDfV (every 8 hours for 24 hours)
Method: as §1

cultured podocytes [1] = assay: Multiwell Boyden chamber assay, random podocyte migration on vitronectin; format: cell-based, mouse; settings: wild type podocytes, treatment for 24 h
Method: Podocyte migration was analyzed using a 12-well chemotaxis chamber (Neuro Probe) according to the manufacturer's protocol. In brief, differentiated podocytes were treated with 50 μg/ml of LPS or PAN for 24 h and then harvested for the migration assay. Bottom plates were coated with vitronectin or type I collagen, while upper plates were loaded with equal number of cells (5×10^4) suspended in medium. The chamber was incubated at 37° C. for 4 h before the membrane was taken out and stained with diamidino phenylindole (DAPI). The average number of migrated cells was counted in four fields in six independent experiments.

uPAR = assay: Induction of uPAR in cultured podocytes, relative quantification; format: cell-based, mouse
cultured podocytes [2] = assay: Scrape wound (wound healing) assay, directed podocyte motility; format: cell-based, mouse; settings: for directed podocyte motility into the wound track: wild type podocytes, vitronectin-coated surface, treatment for 24 h
Method: To study the directional movement of podocytes, a wound healing assay was performed. Briefly, podocytes were seeded on Vn or type I collagen coated cover-slips and cultured for 10 days at 37° C. before treated with LPS or PAN for 12-48 h. To create a scrape wound approximately 0.1 cm wide, the narrow end of a P1000 pipette tip was perpendicularly pushed through the monolayer. Then, cover-slips were washed twice with PBS and incubated in medium. After incubation, cells were fixed with 2% PFA and stained with DAPI for analysis. The cell migratory distance was calculated by averaging the distance from the wound edge to the maximally migrated cell in five distinct border zones.

β3 integrin = assay: Active β3 integrin (AP5 staining) in LPS treated cultured podocytes; format: cell-based, mouse; settings: disruption of lipid rafts
Source text: Cultured podocytes were immunolabeled as described previously^8.

[3] = biological target: β3 integrin on cultured mouse podocytes (mouse) (UniProt O54890); assay: flow cytometry, LPS treated mouse podocytes, 5 µg/ml AP5, 1 mM EDTA
[4] = biological target: β3 integrin on cultured mouse podocytes (mouse) (UniProt O54890); assay: flow cytometry, LPS treated mouse podocytes, 5 µg/ml AP5, 0.1 mM Ca2+
[5] = biological target: β3 integrin on cultured mouse podocytes (mouse) (UniProt O54890); assay: flow cytometry, LPS treated mouse podocytes, 5 µg/ml AP5, 0.4 mM Ca2+
[6] = biological target: β3 integrin on cultured mouse podocytes (mouse) (UniProt O54890); assay: flow cytometry, LPS treated mouse podocytes, 5 µg/ml AP5, 1.0 mM Ca2+
[7] = biological target: β3 integrin on cultured mouse podocytes (mouse) (UniProt O54890); assay: flow cytometry, LPS treated mouse podocytes, 5 µg/ml AP5, 2.0 mM Ca2+
[8] = test system: wild type and uPAR−/− mice; assay: LPS mouse model of proteinuria in wild type and uPAR−/− mice, urine Bradford assay; format: in vivo; set-up: unit not given beside the values; settings: LPS injection
Source text: All animal studies were approved by the Subcommittee on Research Animal Care of the Massachusetts General Hospital. uPAR^−/− mice and uPA^−/− mice on a mixed background of 75% C57BL/6 and 25% 129 Swiss were obtained from University of Leuven, Belgium; Vn^−/− mice (C57BL/6) were obtained from Dr. David Ginsburg, University of Michigan; β3 integrin^−/− mice (C57BL/6) were obtained from Dr. Raghuram Kalluri, Boston. C57BL/6 and 129 Swiss mice were purchased from Jackson Laboratory (Bar Harbor). The LPS mouse model was utilized as previously described^9. The induction of B7-1 was used as a control for the effectiveness of LPS. Rat PAN nephrosis model was set up by a single intraperitoneal injection of puromycin (15 mg/100 g of body weight, Sigma-Aldrich) into Sprague-Dawley rats as described before^27. NZB/W F1 mice were purchased from the Jackson Laboratory and analyzed after 20 weeks when proteinuria and Lupus glomerulonephritis were present. As diabetic nephropathy rat model, we used Sprague Dawley rats treated with Streptozotocin. Hyperglycaemic state was induced by an intraperitoneal Streptozotocin injection (50-70 mg/kg body weight, in citrate buffer 10 mmol/L, pH 4.5). The hyperglycaemic state developed within 48 h and was maintained during the lifetime of the animals. No insulin administration was required. Glycosuria was evaluated with test strips of the Uriscan TM (YD Diagnostics, VWR, Montréal, QC, Canada) and glycaemia with the AccuSoft Monitoring System (Roche Diagnostics, Laval, QC, Canada). At the end of the study, glycaemia values were 4.3±0.53 and 8.5±0.7 mmol/L for 3 months-old and 12 months-old normoglycaemic animals, respectively, and 21.2±0.9 and 33.9±4.0 mmol/L for 3 months-old and 12 months-old diabetic animals, respectively.
uPAR-cDNA plasmids were introduced into uPAR^−/− mouse using the TransIT in vivo gene delivery system (Mims) as described previously^32,8. The following cDNAs and vector constructs were used for gene delivery: uPAR; mutated uPAR D262A^38 (kind gift from Y Wei and H A Chapman, University of California, San Francisco); β3 integrin and the constitutively active form of β3 integrin, D616-690 (β3Δ616-690)^48; Podocin promoter vector p2.5^33 (a kind gift from Dr. L B Holzman, University of Michigan) for Pod-uPAR; ICAM-2 promoter vector^34 for ICAM-2-uPAR. Tissues were analyzed for expression as described previously^8.

αvβ3 integrin [9] = biological target: T1, αvβ3 integrin (Mus musculus, UniProt O54890+P43406); format: in vivo; settings: mice, LPS only (200 μg intraperitoneally), urine 24 h after LPS
T1 construct: from tissue; host or cells: living wild type (C57BL/6, 'B6') mice
T1 sequence (P43406 31-1044): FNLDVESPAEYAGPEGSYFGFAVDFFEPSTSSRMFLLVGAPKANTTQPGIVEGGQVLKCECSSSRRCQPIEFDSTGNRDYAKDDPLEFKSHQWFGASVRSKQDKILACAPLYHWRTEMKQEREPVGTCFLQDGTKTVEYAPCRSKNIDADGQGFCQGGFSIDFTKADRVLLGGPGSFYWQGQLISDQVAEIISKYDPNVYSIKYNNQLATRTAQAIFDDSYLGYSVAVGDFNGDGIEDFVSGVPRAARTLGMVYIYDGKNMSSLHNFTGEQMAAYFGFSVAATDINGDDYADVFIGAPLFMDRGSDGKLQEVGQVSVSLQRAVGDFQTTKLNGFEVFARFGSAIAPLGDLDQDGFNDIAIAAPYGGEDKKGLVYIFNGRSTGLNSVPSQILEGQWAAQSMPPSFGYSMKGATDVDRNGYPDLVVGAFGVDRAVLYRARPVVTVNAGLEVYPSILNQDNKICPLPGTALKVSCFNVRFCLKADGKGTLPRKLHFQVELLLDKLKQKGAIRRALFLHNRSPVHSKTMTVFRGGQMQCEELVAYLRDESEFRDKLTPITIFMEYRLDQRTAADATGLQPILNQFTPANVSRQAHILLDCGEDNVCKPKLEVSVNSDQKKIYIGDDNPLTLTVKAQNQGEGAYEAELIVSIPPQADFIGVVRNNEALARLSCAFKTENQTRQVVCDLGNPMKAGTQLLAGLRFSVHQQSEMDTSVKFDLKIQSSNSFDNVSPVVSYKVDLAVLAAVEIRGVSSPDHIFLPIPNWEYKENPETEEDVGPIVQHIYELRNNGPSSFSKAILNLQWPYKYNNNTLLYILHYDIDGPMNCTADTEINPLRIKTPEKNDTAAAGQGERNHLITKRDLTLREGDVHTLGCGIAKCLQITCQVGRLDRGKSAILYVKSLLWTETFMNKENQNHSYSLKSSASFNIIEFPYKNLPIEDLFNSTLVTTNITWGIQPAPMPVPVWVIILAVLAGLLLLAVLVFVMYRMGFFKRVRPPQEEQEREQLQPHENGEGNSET
T1 sequence (O54890 26-787): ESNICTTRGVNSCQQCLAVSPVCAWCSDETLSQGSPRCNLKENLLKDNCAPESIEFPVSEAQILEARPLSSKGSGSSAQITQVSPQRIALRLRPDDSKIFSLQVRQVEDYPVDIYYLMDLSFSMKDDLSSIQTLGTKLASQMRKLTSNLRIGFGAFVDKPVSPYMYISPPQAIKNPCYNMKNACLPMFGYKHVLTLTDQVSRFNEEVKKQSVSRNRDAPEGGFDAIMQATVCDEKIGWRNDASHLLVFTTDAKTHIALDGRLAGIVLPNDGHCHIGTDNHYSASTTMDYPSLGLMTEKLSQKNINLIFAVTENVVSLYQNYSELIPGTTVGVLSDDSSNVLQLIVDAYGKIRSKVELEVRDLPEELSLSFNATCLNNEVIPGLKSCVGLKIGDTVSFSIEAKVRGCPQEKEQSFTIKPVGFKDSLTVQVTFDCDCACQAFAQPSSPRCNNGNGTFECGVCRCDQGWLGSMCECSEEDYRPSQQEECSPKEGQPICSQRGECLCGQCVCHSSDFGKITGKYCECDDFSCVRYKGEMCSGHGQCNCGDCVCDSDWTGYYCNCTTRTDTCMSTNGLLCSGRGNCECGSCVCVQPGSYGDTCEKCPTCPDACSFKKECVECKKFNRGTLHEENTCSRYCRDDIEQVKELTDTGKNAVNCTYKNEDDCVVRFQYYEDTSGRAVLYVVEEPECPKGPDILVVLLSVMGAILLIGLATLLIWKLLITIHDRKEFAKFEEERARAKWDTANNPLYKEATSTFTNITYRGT
Method: Immediately after the first injection, 200 μg of LPS was injected intraperitoneally into each mouse to induce proteinuria. 24 h after LPS injection, urine was collected for Braford assay.

αvβ3 integrin [10] = biological target: T1, αvβ3 integrin; assay: Recovery of already existing LPS-induced proteinuria, urine Bradford assay; format: in vivo; settings: B6 mice, LPS at 0 and 24 h; 25 mg/kg body weight through tail vein 48 h after first injection
Method: B6 mice are injected twice (0, 24 h) with LPS to induce and maintain proteinuria. 48 h after first injection, S247 (n=6) is administered (25 mg/kg body weight) through tail vein. Control (n=5) received the same amount of PBS. 0, 48 h, 66 h urine was collected for Braford assay.

cyclo-[Arg-Gly-Asp-D-Phe-Val] [cyclo-RGDfV]
induction of active cdc42 in glomeruli (cdc42): inhibited
induction of active Rac1 in glomeruli (Rac1): inhibited

CN(C)c1ncnc2c1ncn2[C@@H]1O[C@H](CO)[C@@H](N)[C@H]1O [PAN, puromycin aminonucleoside]
podocyte migration (migrated podocytes) (cultured podocytes [1]): 67±4.9
Relative quantification of uPAR induction (uPAR): 0.61±0.10
directed podocyte motility into the wound track (cultured podocytes [2]): 79.31±3.72

Methyl-β-cyclodextrin
activation of β3 integrin in response to LPS (AP5 staining) (β3 integrin): abrogated

anti-active β3 integrin antibody AP5 (GTI)
Fluorescent intensity units (fluorescent intensity units) [3]: 3020
Fluorescent intensity units (fluorescent intensity units) [4]: 3060
Fluorescent intensity units (fluorescent intensity units) [5]: 1640
Fluorescent intensity units (fluorescent intensity units) [6]: 535
Fluorescent intensity units (fluorescent intensity units) [7]: 312

urokinase
podocyte directional migration / motility (cultured podocytes [2]; cultured podocytes, addition of external urokinase): did not alter; also recorded: did not modify

lipopolysaccharide [LPS]
proteinuria (urine Bradford assay) ([8]; uPAR−/− mice reconstituted with uPAR-cDNA): 0.92±0.46
proteinuria (urine Bradford assay) ([8]; uPAR−/− mice which received control plasmids): 0.26±0.15
proteinuria (urine Bradford assay) ([8]; uPAR−/− mice): 0.32±0.14
proteinuria (urine Bradford assay) ([8]; wild type mice): 0.82±0.32
podocyte migration (migrated podocytes) (cultured podocytes [1]): 72±5.5
proteinuria (urine Bradford assay) (αvβ3 integrin [9]): 0.924±0.1055
Relative quantification of uPAR induction (uPAR): 0.49±0.06
directed podocyte motility into the wound track (cultured podocytes [2]): 85.34±4.1

O=C(O)C[C@H](NC(=O)CNC(=O)c1cncc(NC2=NCC(O)CN2)c1)c1cc(Cl)cc(Br)c1O (stereo partly drawn) [S247]
already existing proteinuria; urinary protein at timepoint 66 h (αvβ3 integrin [10]): Reduction of urinary protein
